Assays:
[1] = test system: wild-type L1210 leukemic cells; test: In vitro cytotoxicity, growth inhibition of wild-type L1210 leukemic cells; format: cell-based, murine; settings: 72 hours incubation
Protocol: Wild-type L1210 leukemic cells were grown as a suspension culture in McCoy's 5A medium supplemented with 10% horse serum, glutamine, streptomycin and penicillin at 37° C., 95% relative humidity and 5% CO2. Four ml of cell suspension (10^5 cells/ml) were added to culture tubes and the appropriate amount of drug was added (to yield 0.01, 0.1, 1 or 10 μg/ml final concentration) to the culture tubes. After 72 hours of incubation, the cell concentration in control and experimental cultures were determined with the aid of the Coulter counter model ZBf and the percent of growth inhibition calculated.

L1210 = test: In vivo antitumor therapy against L1210; design: species or system BDF1 mice; settings: for Long-term Survivors: alive 30 days after tumor inoculation
[2] = LD50 of DACH-Pt(II) compounds, intraperitoneal; format: in vivo; settings: i.p., CD1 albino mice
[3] = In vivo renal and hematological toxicity of DACH-Pt(II) compounds; design: species or system CD1 albino mice; WBC d.5: unit not given here; settings: single i.p. LD50 dose; for Body Weight d.5 (% of day 0) / WBC d.5: day 5; for WBC d.5: mean ± S.D.
Protocol: CD1 albino mice were administered a single intraperitoneal injection of the LD50 dose of each compound using 5 mice in each group. Five days later each mouse was bled under anesthesia from the axillary vessel. Blood urea nitrogen (BUN) and leucopenia were assessed for each sample.
^a CD1 Albino mice were administered a single i.p. injection of
the LD50 dose of each compound (5 mice/cmpd) and bled under
anesthesia from the axillary vessel 5 days later for blood urea nitrogen
(BUN) measurement and assessment of leucopenia. Results as presented as […]

L1210/cisplatin = test: In vivo antitumor efficacy, L1210/cisplatin; design: species or system BDF1 mice; settings: for % T/C (mean survival time treated/control × 100): mice inoculated with L1210 cells (Table 6); for % T/C: days 1, 5, 9
Protocol: (§1) BDF1 mice were inoculated intraperitoneally with 10^5 L121O cells, 0.5 ml of 10% tumor brei or 10^6 M5076 cells using 5 animals in each group. Drug was administered […] on days 1, 5 and 9, except that the group infected with M5076 cells was also injected on day 13. % T/C represents mean survival time treated/mean survival time of the control times 100.
^a BDF1 mice were inoculated i.p. with 10^5 L1210 cells. Mic
received 3 i.p. drug injections days 1, 5, and 9.
(§2) ^d % T/C = (Mean Survival Time treated/Mean Survival Time control)
(§3) ^e LTS animals alive 60 days after inoculation of L1210/0 and B16 and […]

B16 melanoma = test: In vivo antitumor efficacy, B16 melanoma; design: species or system BDF1 mice; settings: for % T/C (mean survival time treated/control x 100): mice inoculated with B16 cells (Table 6); for % T/C: days 1, 5, 9
Protocol: as §1, §2, §3

M5076 = test: In vivo antitumor efficacy, M5076; design: species or system BDF1 mice; settings: for long term survivor: M5076 inoculation (Table 6); for % T/C (treated/control mean survival time): mice inoculated with M5076 cells (Table 6); for % T/C: days 1, 5, 9, 13; for LTS: alive 90 days after inoculation
Protocol: as §1
^c BDF1 mice were inoculated i.p. with 10^6 M5076 cells. Mic
received 4 i.p. drug injections on days 1, 5, 9 and 13.
as §2
^e LTS animals alive 60 days after inoculation of L1210/0 and B16 and
90 days after inoculation B5076.

[4] = optimal dose 12.5 mg/kg i.p., days 1-9
[5] = optimal dose 12.5 mg/kg i.p., days 1,5,9
[6] = optimal dose 50 mg/kg i.p., day 1
[7] = optimal dose 25 mg/kg i.p., days 1,5,9
[8] = optimal dose 6.25 mg/kg i.p., days 1,5,9

1,1-Cyclobutanedicarboxylato(cis-DACH)Pt(II).11/2H2 O [Compound 13]
ID50 [1]: 3.30 µg/mL | Long-term Survivors (L1210; 12.5 mg/kg i.p., days 1-9): 1/6 | % T/C (L1210; [4]): 253% | LD50 [2]: 215 mg/kg | Survivors on d.5 [3]: 5/5 | Body Weight d.5 (% of day 0) [3]: 82 % of day 0 | WBC d.5 [3]: 1.13 ± 0.28 | % T/C (mean survival time treated/control × 100) (L1210/cisplatin): 150% | % T/C (L1210/cisplatin; opt. dose 150 mg/kg i.p.): 150% | long term survivor (B16 melanoma; B16 inoculation (Table 6)): 1/5 | % T/C (mean survival time treated/control x 100) (B16 melanoma): 200% | % T/C (B16 melanoma; opt. dose 100 mg/kg i.p.): 200% | LTS (B16 melanoma; opt. dose 100 mg/kg i.p., alive 60 days after inoculation): 1/5 | long term survivor (M5076): 5/5 | % T/C (treated/control mean survival time) (M5076): 400% | % T/C (M5076; opt. dose 100 mg/kg i.p.): 400% | LTS (M5076; opt. dose 100 mg/kg i.p.): 5/5

1,1-Cyclobutanedicarboxylato(trans-R,R-DACH)Pt(II).1 1/2H2 O [Compound 11]
Long-term Survivors (L1210; 6.25 mg/kg i.p., days 1-9): 3/6 | % T/C (L1210; optimal dose 6.25 mg/kg i.p., days 1-9): 398% | % T/C (L1210; [5]): 140% | % T/C (L1210; [6]): 147% | LD50 [2]: 280 mg/kg | Survivors on d.5 [3]: 5/5 | Body Weight d.5 (% of day 0) [3]: 121 % of day 0 | WBC d.5 [3]: 3.44 ± 1.55 | % T/C (mean survival time treated/control × 100) (L1210/cisplatin): 118% | % T/C (L1210/cisplatin; opt. dose 150 mg/kg i.p.): 118% | % T/C (mean survival time treated/control x 100) (B16 melanoma): 104% | % T/C (B16 melanoma; opt. dose 50 mg/kg i.p.): 104% | long term survivor (M5076): one | % T/C (treated/control mean survival time) (M5076): 220% | % T/C (M5076; opt. dose 50 mg/kg i.p.): 220% | LTS (M5076; opt. dose 50 mg/kg i.p.): 1/5

CCN(CC(=O)[O-])CC(=O)[O-].N[C@@H]1CCCC[C@H]1N.O.[Pt+2] (stereo in doubt) [Compound 1, N-ethyliminodiacetato(trans-R,R-DACH)Pt(II).H2 O]
ID50 [1]: 0.73 µg/mL | Long-term Survivors (L1210; 3.15 mg/kg i.p., days 1-9): 4/6 | Long-term Survivors (L1210; 12.5 mg/kg i.p., days 1,5,9): 1/6 | % T/C (L1210; optimal dose 3.15 mg/kg i.p., days 1-9): 434% | % T/C (L1210; [5]): 324% | % T/C (L1210; [6]): 125% | LD50 [2]: 58 mg/kg | Survivors on d.5 [3]: 5/5 | Body Weight d.5 (% of day 0) [3]: 105 % of day 0 | WBC d.5 [3]: 2.3 ± 0.93 | % T/C (mean survival time treated/control × 100) (L1210/cisplatin): 324% | % T/C (L1210/cisplatin; opt. dose 12.5 mg/kg i.p.): 324%

N[C@@H]1CCCC[C@H]1N.O.O.O=C([O-])CN(O)CC(=O)[O-].[Pt+2] (stereo in doubt) [Compound 9, N-hydroxyliminodiacetato(trans-R,R-DACH)Pt(II).2H2 O]
ID50 [1]: 0.76 µg/mL | % T/C (L1210; [7]): 265% | % T/C (L1210; [6]): 156%

N[C@H]1CCCC[C@@H]1N.O.O.O=C([O-])C1(C(=O)[O-])CCC1.[Pt+2] (stereo in doubt) [Compound 12, 1,1-Cyclobutanedicarboxylato(trans-S,S-DACH)Pt(II).2H2 O]
ID50 [1]: 1.65 µg/mL | % T/C (L1210; [4]): 120% | LD50 [2]: 230 mg/kg | Survivors on d.5 [3]: 3/5 | Body Weight d.5 (% of day 0) [3]: 114 % of day 0 | WBC d.5 [3]: 3.42 ± 1.93 | % T/C (mean survival time treated/control × 100) (L1210/cisplatin): 176% | % T/C (L1210/cisplatin; opt. dose 100 mg/kg i.p.): 176% | % T/C (mean survival time treated/control x 100) (B16 melanoma): 104% | % T/C (B16 melanoma; opt. dose 50 mg/kg i.p.): 104% | % T/C (treated/control mean survival time) (M5076): 231% | % T/C (M5076; opt. dose 50 mg/kg i.p.): 231% | LTS (M5076; opt. dose 50 mg/kg i.p.): 1/5

N[C@@H]1CCCC[C@H]1N.O.O=C([O-])C1(C(=O)[O-])CC1.[Pt+2] (stereo in doubt) [Compound 14, 1,l-Cyclopropanedicarboxylato(trans-R,R-DACH)Pt(II).H2 O]
ID50 [1]: 0.66 µg/mL

CN(C)CC(=O)[O-].CN(C)CC(=O)[O-].N[C@@H]1CCCC[C@H]1N.O.O.[Pt+2] (stereo in doubt) [Compound 16, Cis-bis-N,N-dimethylglycinato(trans-R,R-DACH)Pt(II).2H2 O]
ID50 [1]: 3.5 µg/mL

N.N.O=C([O-])C1(C(=O)[O-])CCC1.[Pt+2] [Carboplatin, reference compound]
LD50 [2]: 105 mg/kg | Survivors on d.5 [3]: 5/5 | Body Weight d.5 (% of day 0) [3]: 95 % of day 0 | % T/C (L1210/cisplatin; opt. dose 90 mg/kg i.p.): 121% | % T/C (M5076; opt. dose 40 mg/kg i.p.): 150%

CCN1CC(=O)[O][Pt]2([NH]C3CCCCC3[NH]2)[O]C(=O)C1 (stereo not drawn) [Cis-EIDA]
LD50 [2]: 140 mg/kg | Survivors on d.5 [3]: 3/5 | Body Weight d.5 (% of day 0) [3]: 77 % of day 0 | WBC d.5 [3]: 3.25 ± 1.01 | % T/C (L1210/cisplatin; opt. dose 75 mg/kg i.p.): 262%

N.N.[Cl][Pt][Cl] [Cisplatin, reference compound]
% T/C (L1210/cisplatin; opt. dose 5 mg/kg i.p.): 94% | % T/C (B16 melanoma; opt. dose 3 mg/kg i.p.): 139% | % T/C (M5076; opt. dose 3 mg/kg i.p.): 200%

CCCN(CC(=O)[O-])CC(=O)[O-].N[C@@H]1CCCC[C@H]1N.O.O.[Pt+2] [Compound 2, N-propyliminodiacetato(trans-R,R-DACH)Pt(II).2H2 O]
ID50 [1]: 0.75 µg/mL | % T/C (L1210; optimal dose 56 mg/kg i.p., day 1): 129%

CCCCN(CC(=O)[O-])CC(=O)[O-].N[C@@H]1CCCC[C@H]1N.O.O.[Pt+2] [Compound 3, N-butyliminodiacetato(trans-R,R-DACH)Pt(II).2H2 O]
ID50 [1]: 0.74 µg/mL | Long-term Survivors (L1210; 12.5 mg/kg i.p., days 1,5,9): 2/6 | % T/C (L1210; optimal dose 12.5 mg/kg i.p., day 1): 147% | % T/C (L1210; [5]): 318%

CCCCCN(CC(=O)[O-])CC(=O)[O-].N[C@@H]1CCCC[C@H]1N.O.[Pt+2] [Compound 4, N-amyliminodiacetato(trans-R,R-DACH)Pt(II).H2 O]
ID50 [1]: 3.00 µg/mL | Long-term Survivors (L1210; 25 mg/kg i.p., days 1,5,9): 2/6 | % T/C (L1210; [7]): 227% | % T/C (L1210; [6]): 158%

CC(C)CCN(CC(=O)[O-])CC(=O)[O-].N[C@@H]1CCCC[C@H]1N.[Pt+2] [Compound 6, N-isoamyliminodiacetato(trans-R,R-DACH)Pt(II)]
% T/C (L1210; [5]): 150% | % T/C (L1210; [6]): 145%

CCC(C)N(CC(=O)[O-])CC(=O)[O-].N[C@@H]1CCCC[C@H]1N.O.O.[Pt+2] (stereo not drawn) [Compound 7, N-sec-butyliminodiacetato(trans-R,R-DACH)Pt(II).2H2 O]
ID50 [1]: 0.65 µg/mL | Long-term Survivors (L1210; 6.25 mg/kg i.p., days 1,5,9): 2/6 | % T/C (L1210; [8]): 282%

CC(C)(C)N(CC(=O)[O-])CC(=O)[O-].N[C@@H]1CCCC[C@H]1N.O.O.O.[Pt+2] [Compound 8, N-ter-butyliminodiacetato(trans-R,R-DACH)Pt(II).3H2 O]
Long-term Survivors (L1210; 6.25 mg/kg i.p., days 1,5,9): 1/6 | % T/C (L1210; [8]): 271%

CC(=CC(=O)[O-])C(=O)[O-].NC1CCCCC1N.O.[Pt+2] [Compound 10, Citraconato(trans-R,R-DACH)Pt(II).1H2 O]
ID50 [1]: 5.00 µg/mL | % T/C (L1210; [7]): 200%

CCN1CC(=O)[O][Pt]2([NH]C3CCCCC3[NH]2)[O]C(=O)C1 (stereo not shown) [S,S-EIDA]
LD50 [2]: 95 mg/kg | Survivors on d.5 [3]: 5/5 | Body Weight d.5 (% of day 0) [3]: 100 % of day 0 | WBC d.5 [3]: 2.63 ± 0.96 | % T/C (L1210/cisplatin; opt. dose 25 mg/kg i.p.): 344%

Cis-bis-galacturonato(trans-R,R-DACH)Pt(II).2H2 O [Compound 15]
ID50 [1]: 0.90 µg/mL | % T/C (L1210; [5]): 238%

N-isopropyliminodiacetato(trans-R,R-DACH)Pt(II).2H2 O [Compound 5]
ID50 [1]: 0.85 µg/mL | Long-term Survivors (L1210; 12.5 mg/kg i.p., days 1,5,9): 1/6 | % T/C (L1210; [5]): 324% | % T/C (L1210; [6]): 155%

From US5132323A, “1,2-diaminocyclohexane-platinum complexes with antitumor activity” (Board of Regents, The University of Texas System, priority 1990, dated 1992)
